Results reported in patent US20260139007A1, “EPHA4 ANTAGONISTS AND USES THEREOF” (SANFORD BURNHAM PREBYS MEDICAL DISCOVERY INSTITUTE, priority 2023, published 2026).
Several values for one entry are separate records, joined by “and”; a condition that tells them apart may be missing. Equal entries are not always repeated. Where two headings read alike, the source gives them in different places. Bridge positions count the residues as written; N and C are the ends. Square brackets hold non-standard residues; d marks the D form. Peptide text beside a SMILES is read from it. * marks the point of attachment. Octanoyl = CCCCCCCC(=O)*; βAla = NCCC(=O)O

What was measured:
EphA4 Fc [1] = assay: ELISA measuring inhibition of ephrin-A5 AP binding to immobilized EphA4 Fc; parameters: species or system human or mouse
EphA4 Fc [2] = assay: ELISA inhibition of ephrin-A5 AP binding to EphA4 Fc in the presence of HSA, BSA or methyl-β-cyclodextrin; conditions: for IC50: read-out: IC50 ± SE (n) by ELISA with HSA or BSA; for effect of HSA on potency: presence vs absence of 40 mg/mL HSA, tested in parallel
Source text: To determine whether albumin binding to the lipidated compounds affects their ability to bind EphA4, the effects of delipidated human serum albumin (HSA) on the inhibitory potency of some of the compounds were examined.

[3] = In vivo half-life: active compound remaining in mouse blood, deduced from apparent IC50 of plasma in the EphA4-ephrinA5 ELISA; conditions: mouse; for blood concentration: 0.8 mg/mouse
Procedure: To examine the persistence of compounds in the blood circulation, an approach was devised to determine the concentration of compound in mouse blood by taking advantage of the ELISA measuring inhibition of EphA4-ephrinA5 interaction.
Lipidated compounds dissolved in DMSO were diluted in […] PBS (to a 5% final DMSO concentration) or in […] PBS supplemented with 20 or 40 mg/mL BSA or 6.5 mM methyl-β-cyclodextrin for intravenous or intraperitoneal injection. Neutral pH of the compound solution was verified before injection. PEGylated compounds were dissolved in […] PBS before intraperitoneal injection. Peptides were sterile filtered before administration. Blood from each mouse was collected at 3 different time points after compound injection, the first 2 times by retro-orbital bleeding and the third time by terminal cardiac bleeding under deep anesthesia. Red blood cells were removed by centrifugation from blood treated with heparin and the resulting plasma was frozen in aliquots.
For each time point, a dose-response curves by measuring inhibition of EphA4-ephrinA5 binding at different plasma dilutions was obtained.

EphA4 = molecular target: T1, EphA4 (Homo sapiens, UniProt P54764); assay: EphA4 Y596 phosphorylation (activation) in cells stimulated with ephrinA5-Fc; type: cell-based; conditions: EphA4 tyrosine phosphorylation in cells stimulated with ephrin-A5
T1 construct: expressed in transfected cells; host or cells: HEK-EphA4 cells (immortalized cells stably transfected)
T1 sequence (P54764 20-986, species assumed): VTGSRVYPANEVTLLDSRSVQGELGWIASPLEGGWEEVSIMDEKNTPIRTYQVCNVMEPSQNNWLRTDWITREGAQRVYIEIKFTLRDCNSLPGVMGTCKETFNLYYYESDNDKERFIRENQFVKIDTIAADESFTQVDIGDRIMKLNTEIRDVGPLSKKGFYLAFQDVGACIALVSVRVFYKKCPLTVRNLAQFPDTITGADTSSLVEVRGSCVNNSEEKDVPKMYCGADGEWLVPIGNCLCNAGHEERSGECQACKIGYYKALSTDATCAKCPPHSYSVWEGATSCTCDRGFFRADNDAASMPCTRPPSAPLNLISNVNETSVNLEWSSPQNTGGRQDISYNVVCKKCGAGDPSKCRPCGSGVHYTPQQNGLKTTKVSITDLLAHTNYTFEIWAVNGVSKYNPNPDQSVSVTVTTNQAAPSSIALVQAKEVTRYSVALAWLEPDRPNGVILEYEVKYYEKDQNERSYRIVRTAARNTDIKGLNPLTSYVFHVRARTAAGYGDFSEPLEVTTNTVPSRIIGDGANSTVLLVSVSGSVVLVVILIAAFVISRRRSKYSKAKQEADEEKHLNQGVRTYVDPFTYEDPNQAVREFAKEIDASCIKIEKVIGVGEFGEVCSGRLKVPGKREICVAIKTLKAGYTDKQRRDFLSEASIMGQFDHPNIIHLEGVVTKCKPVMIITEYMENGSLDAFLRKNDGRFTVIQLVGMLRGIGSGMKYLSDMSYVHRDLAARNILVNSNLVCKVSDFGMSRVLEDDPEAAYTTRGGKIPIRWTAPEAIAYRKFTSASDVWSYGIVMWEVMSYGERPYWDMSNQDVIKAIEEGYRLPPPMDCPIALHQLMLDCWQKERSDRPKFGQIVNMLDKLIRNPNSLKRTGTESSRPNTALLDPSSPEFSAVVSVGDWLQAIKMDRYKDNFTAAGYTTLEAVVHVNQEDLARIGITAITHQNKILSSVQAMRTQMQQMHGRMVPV
Procedure: Immortalized cells stably transfected to express FLAG-tagged EphA4 were cultured at 37° C. in Dulbecco's Modified Eagle Medium (DMEM; #10-013-CV, Corning/Thermo Fisher Scientific) containing 10% fetal bovine serum (FBS) with 1% antibiotic-antimycotic solution (#30-004-Cl, Corning). To assess inhibition of EphA4 activation by compounds in cells, the cells were plated in 48-well plates.
For ELISAs, high binding capacity polystyrene 96-well plates were coated overnight at 4° C. with 1 μg/mL goat anti-FLAG antibody (#F3165, Sigma-Aldrich) in 50 μL/well borate buffer (0.1 M boric acid, 0.1 M Na borate, pH 8.7). […] OD450 was then measured.

[4] = Solubility of lipidated compounds; type: physicochemical
[5] = inhibition of ephrin-A5 AP binding to EphA4 Fc, averages of all experiments, read-out: IC50 ± SE (n) by ELISA
[6] = in vivo, iv, IV (intravenous administration), read-out: In vivo half-life (converted)
[7] = ELISA inhibition of EphA4-ephrin-A5 interaction
[8] = in vivo, ip, IP (intraperitoneal administration), read-out: In vivo half-life (converted)
[9] = ELISA inhibition of EphA4-ephrin-A5 interaction, read-out: IC50 (approximate)

Row | Molecule | IC50 (EphA4 Fc [1]; [5]) [nM] | IC50 (EphA4 Fc [2]; 40 mg/mL delipidated HSA) [nM] | half-life [3, 6] [min] | potency compared with APY-d3 (EphA4 Fc [1]; [7]) | half-life [3, 8] [min] | IC50 (EphA4 Fc [1]; [9]) | effect of HSA on potency (EphA4 Fc [2]) | other results
1 | CCCCCCCCCCCC(=O)NCCCC[C@H](NC(=O)CNC(=O)CNC(=O)[C@@H]1CSSC[C@H](NC(=O)[C@H](Cc2ccc(O)cc2)NC(=O)[C@@H]2CCCN2C(=O)CCN)C(=O)N[C@@H](C(C)C)C(=O)N[C@@H](Cc2ccc(O)cc2)C(=O)N[C@@H](CCCNC(=N)N)C(=O)NCCC(=O)N[C@@H](CO)C(=O)N[C@@H](Cc2c[nH]c3ccccc23)C(=O)N[C@@H](CO)C(=O)N1)C(=O)NCC(N)=O [Compound 12] | 240 ± 30 | 920 ± 180 | 30 to 42 | – | – | – | – | In vivo half-life ([3]; IV (intravenous administration)): ~30 min
2 | CC[C@H](C)[C@H](NC(=O)[C@H](CC(C)C)NC(=O)[C@H](CCCNC(=N)N)NC(=O)[C@@H]1CSSC[C@H](NC(=O)[C@H](Cc2ccc(O)cc2)NC(=O)[C@@H]2CCCN2C(=O)CCN)C(=O)N[C@@H](C(C)C)C(=O)N[C@@H](Cc2ccc(O)cc2)C(=O)N[C@@H](CCCNC(=N)N)C(=O)NCCC(=O)N[C@@H](CO)C(=O)N[C@@H](Cc2c[nH]c3ccccc23)C(=O)N[C@@H](CO)C(=O)N1)C(=O)N[C@@H](CCC(=O)O)C(=O)N[C@@H](CC(=O)O)C(=O)N[C@H](C(=O)N[C@H]1CSSC[C@@H](C(=O)N[C@@H](CC(C)C)C(=O)N[C@@H](Cc2c[nH]c3ccccc23)C(=O)N[C@@H](CCC(=O)O)C(=O)N[C@@H](CC(=O)O)C(=O)N[C@@H](CC(=O)O)C(N)=O)NC(=O)CNC(=O)[C@H](Cc2c[nH]c3ccccc23)NC(=O)[C@H](CCCNC(=N)N)NC(=O)[C@@H]2CCCN2C(=O)[C@H](CC(C)C)NC1=O)[C@@H](C)CC [Compound 21] (H-[βAla]PYCVYR[βAla]SWSCRLIEDICLPRWGCLWEDD-NH2; disulfide 4-12, 19-25) | 18 ± 4 | – | – | as potent as APY-d3 | ~40 | – | – | decrease in potency in the presence of bovine serum albumin (EphA4 Fc [2]; 20 mg/mL bovine serum albumin): ~8 fold; IC50 (EphA4 Fc [2]; 20 mg/ml BSA): 130 ± 10 nM
3 | [Cyc (4,12)] H2N-(βA)PYCVYR(βA)SWSC(Ahx)(Ahx)(Ahx)(Pra/mPEG30-triazole)-OH (XPYCVYRXSWSCXXX; non-natural residues; cyclised or stapled) [APY-d3-PEG4] | – | – | – | – | – | – | – | t1/2 in mouse circulation ([3]; in vivo): ~660 min; blood concentration ([3]; in vivo, ip): ~9000 nM; blood concentration ([3]; in vivo, ip, 20 h): ~3000 nM; blood concentration ([3]; in vivo, ip, 48 h): ~400 nM; inhibitory potency lower than that of APY-d3 (EphA4): 2-3 fold
4 | CCCCCCCCCCCCCC(=O)N[C@@H](CCC(=O)N[C@@H](CCC(=O)NCCCC[C@H](NC(=O)CNC(=O)CNC(=O)[C@@H]1CSSC[C@H](NC(=O)[C@H](Cc2ccc(O)cc2)NC(=O)[C@@H]2CCCN2C(=O)CCN)C(=O)N[C@@H](C(C)C)C(=O)N[C@@H](Cc2ccc(O)cc2)C(=O)N[C@@H](CCCNC(=N)N)C(=O)NCCC(=O)N[C@@H](CO)C(=O)N[C@@H](Cc2c[nH]c3ccccc23)C(=O)N[C@@H](CO)C(=O)N1)C(=O)NCC(N)=O)C(=O)O)C(=O)O [Compound 16] | 77 ± 9 | 1370 | – | – | ~120 | ~80 nM | dramatically decreased | decrease in potency compared to compound 15 (EphA4 Fc [1]; C14 myristoyl vs C12 lipid, γGluγGlu spacer): 2-3 fold; effect of methyl-β-cyclodextrin on inhibitory potency (EphA4 Fc [2]; 6.5 mM methyl-β-cyclodextrin vs buffer): does not affect the inhibitory potency
5 | CCCCCCCCCCCC(=O)N[C@@H](CCC(=O)N[C@@H](CCC(=O)NCCCC[C@H](NC(=O)CNC(=O)CNC(=O)[C@@H]1CSSC[C@H](NC(=O)[C@H](Cc2ccc(O)cc2)NC(=O)[C@@H]2CCCN2C(=O)CCN)C(=O)N[C@@H](C(C)C)C(=O)N[C@@H](Cc2ccc(O)cc2)C(=O)N[C@@H](CCCNC(=N)N)C(=O)NCCC(=O)N[C@@H](CO)C(=O)N[C@@H](Cc2c[nH]c3ccccc23)C(=O)N[C@@H](CO)C(=O)N1)C(=O)NCC(N)=O)C(=O)O)C(=O)O [Compound 15] | – | – | – | comparable to APY-d3 | 30 to 60 | ~50 nM and ~30 nM | dramatically decreased | solubility [4]: acceptable solubility; half-life ([3]; in vivo, read-out: t1/2 in mouse circulation): ~40 min
6 | CCCCCCCC(=O)NCCCC[C@@H]1NC(=O)[C@H](Cc2ccc(O)cc2)NC(=O)[C@H](C(C)C)NC(=O)[C@@H](NC(=O)[C@H](Cc2ccc(O)cc2)NC(=O)[C@@H]2CCCN2C(=O)CCN)CSSC[C@@H](C(=O)NCC(=O)NCC(=O)N[C@@H](CCCNC(=N)N)C(=O)NCC(N)=O)NC(=O)[C@H](CO)NC(=O)[C@H](Cc2c[nH]c3ccccc23)NC(=O)[C@H](CO)NC(=O)CCNC1=O [Compound 5] (H-[βAla]PYCVYK(Octanoyl)[βAla]SWSCGGRG-NH2; disulfide 4-12) | 26 ± 5 | 75 ± 24 | < 10 | – | – | – | – | % of compound remaining in the blood ([3]; 10 min after intravenous injection, in PBS with 5% DMSO): 5%
